Experiments:
Assay type in all cases: biochemical
[1] = molecular target: T1, cathepsin S (Homo sapiens, UniProt P25774); test: Cathepsin S enzyme inhibition in vitro (kinetic fluorescence assay); conditions: recombinant human cathepsin S vs calpain I
T1 construct: purchased Calbiochem 219343; host or cells: E. coli
How it was run: (§1)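 Cathepsin B (0.25 nM, human liver) with 100 μM Z-Phe-Arg-AMC; L (1 nM, human liver) with 2 μM Z-Phe-Arg-AMC; S (0.5 nM, recombinant) with 20 μM Z-Val-Val-Arg-AMC. pH 6.0 MES buffer, 2.5 mM L-cysteine, room temperature. Kinetic fluorescence (ex 390/em 460 nm); apparent Ki from IC50 by Cheng-Prusoff.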

[2] = molecular target: T2, cathepsin B (Homo sapiens, UniProt P07858); test: Cathepsin B enzyme inhibition in vitro (kinetic fluorescence assay); conditions: cathepsin B isolated from human liver vs calpain I
T2 construct: cathepsin B—isolated from human liver (Calbiochem #219362); purchased Calbiochem 219362; host or cells: human liver (tissue-derived)
How it was run: as §1

[3] = molecular target: T3, cathepsin K (Homo sapiens, UniProt P43235); test: Cathepsin K enzyme inhibition in vitro (kinetic fluorescence assay); conditions: cathepsin K activated from recombinant human procathepsin K vs calpain I
T3 construct: purchased Calbiochem 342001; host or cells: E. coli
T3 sequence (P43235 115-329): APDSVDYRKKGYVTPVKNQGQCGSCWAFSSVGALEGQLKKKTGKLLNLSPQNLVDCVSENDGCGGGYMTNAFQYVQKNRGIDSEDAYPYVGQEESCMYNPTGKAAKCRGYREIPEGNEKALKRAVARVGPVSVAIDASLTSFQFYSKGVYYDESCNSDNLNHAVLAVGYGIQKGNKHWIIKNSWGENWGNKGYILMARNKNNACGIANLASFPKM

[4] = molecular target: T4, cathepsin L (Homo sapiens, UniProt P07711); test: Cathepsin L enzyme inhibition in vitro (kinetic fluorescence assay); conditions: cathepsin L isolated from human liver vs calpain I
T4 construct: cathepsin L—isolated from human liver (Calbiochem #219402); purchased Calbiochem 219402; host or cells: human liver (tissue-derived)
How it was run: as §1

T1 sequence (P25774 115-331): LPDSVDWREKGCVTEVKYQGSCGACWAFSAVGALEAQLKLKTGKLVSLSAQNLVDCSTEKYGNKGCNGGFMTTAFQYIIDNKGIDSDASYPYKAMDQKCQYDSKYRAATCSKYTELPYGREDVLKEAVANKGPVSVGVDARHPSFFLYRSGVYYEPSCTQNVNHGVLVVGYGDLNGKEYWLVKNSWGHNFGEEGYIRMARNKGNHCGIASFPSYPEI
T4 sequence (P07711 114-333): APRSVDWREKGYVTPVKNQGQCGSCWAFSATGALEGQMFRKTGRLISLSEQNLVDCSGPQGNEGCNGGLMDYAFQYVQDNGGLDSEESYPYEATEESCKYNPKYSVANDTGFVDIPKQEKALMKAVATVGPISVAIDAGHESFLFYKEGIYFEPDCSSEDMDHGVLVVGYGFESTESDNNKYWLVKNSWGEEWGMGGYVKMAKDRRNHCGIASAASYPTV

NC(=O)C(=O)C(Cc1ccc(F)cc1)NC(=O)c1cccnc1-n1ccc(-c2ccccc2)n1 (centres unmarked) [Example 123, N-{3-Amino-1-[(4-fluorophenyl)methyl]-2,3-dioxopropyl}-2-(3-phenyl-1H-pyrazol-1-yl)pyridine-3-carboxamide]
Sel cat. S: Ki(cathepsin S)/Ki(calpain) ratio [1]: ++ (++ means a Ki(cathepsin S)/Ki(calpain) ratio of ≧100)
Sel cat. B: Ki(cathepsin B)/Ki(calpain) ratio [2]: ++ (++ means a Ki(cathepsin B)/Ki(calpain) ratio of ≧30)
Sel cat. K: Ki(cathepsin K)/Ki(calpain) ratio [3]: ++ (++ means a Ki(cathepsin K)/Ki(calpain) ratio of ≧30)
Sel cat. L: Ki(cathepsin L)/Ki(calpain) ratio [4]: ++ (++ means a Ki(cathepsin L)/Ki(calpain) ratio of ≧50)

NC(=O)C(=O)C(Cc1ccccc1)NC(=O)c1cccnc1-n1ccc(-c2c(F)cc(F)cc2F)n1 (centres unmarked) [Example 116, N-[3-Amino-2,3-dioxo-1-(phenylmethyl)propyl]-2-[3-(2,4,6-trifluorophenyl)-1H-pyrazol-1-yl]pyridine-3-carboxamide]
Sel cat. S: Ki(cathepsin S)/Ki(calpain) ratio [1]: ++ (++ means a Ki(cathepsin S)/Ki(calpain) ratio of ≧100)
Sel cat. B: Ki(cathepsin B)/Ki(calpain) ratio [2]: ++ (++ means a Ki(cathepsin B)/Ki(calpain) ratio of ≧30)
Sel cat. K: Ki(cathepsin K)/Ki(calpain) ratio [3]: + (+ means 10≦Ki(cathepsin K)/Ki(calpain)<30)
Sel cat. L: Ki(cathepsin L)/Ki(calpain) ratio [4]: ++ (++ means a Ki(cathepsin L)/Ki(calpain) ratio of ≧50)

NC(=O)C(=O)C(Cc1ccc(OCc2ccccc2)cc1)NC(=O)c1cccnc1-n1ccc(-c2ccccc2)n1 (centres unmarked) [Example 127, N-[3-Amino-2,3-dioxo-1-({4-[(phenylmethyl)oxy]phenyl}methyl)propyl]-2-(3-phenyl-1H-pyrazol-1-yl)pyridine-3-carboxamide]
Sel cat. S: Ki(cathepsin S)/Ki(calpain) ratio [1]: ++ (++ means a Ki(cathepsin S)/Ki(calpain) ratio of ≧100)
Sel cat. B: Ki(cathepsin B)/Ki(calpain) ratio [2]: ++ (++ means a Ki(cathepsin B)/Ki(calpain) ratio of ≧30)
Sel cat. K: Ki(cathepsin K)/Ki(calpain) ratio [3]: ++ (++ means a Ki(cathepsin K)/Ki(calpain) ratio of ≧30)
Sel cat. L: Ki(cathepsin L)/Ki(calpain) ratio [4]: ++ (++ means a Ki(cathepsin L)/Ki(calpain) ratio of ≧50)

NC(=O)C(=O)C(Cc1ccccc1)NC(=O)c1cccnc1-n1ccc(-c2ccc(Cl)cc2Cl)n1 (centres unmarked) [Example 79, N-(3-Amino-1-benzyl-2,3-dioxopropyl)-2-[3-(2,4-dichlorophenyl)-1H-pyrazol-1-yl]nicotinamide]
Sel cat. S: Ki(cathepsin S)/Ki(calpain) ratio [1]: ++ (++ means a Ki(cathepsin S)/Ki(calpain) ratio of ≧100)
Sel cat. B: Ki(cathepsin B)/Ki(calpain) ratio [2]: ++ (++ means a Ki(cathepsin B)/Ki(calpain) ratio of ≧30)
Sel cat. K: Ki(cathepsin K)/Ki(calpain) ratio [3]: ++ (++ means a Ki(cathepsin K)/Ki(calpain) ratio of ≧30)
Sel cat. L: Ki(cathepsin L)/Ki(calpain) ratio [4]: ++ (++ means a Ki(cathepsin L)/Ki(calpain) ratio of ≧50)

COc1ccc(CC(NC(=O)c2cccnc2-n2ccc(-c3ccc(F)cc3)n2)C(=O)C(N)=O)cc1 (centres unmarked) [Example 81, N-[3-Amino-1-(4-methoxybenzyl)-2,3-dioxopropyl]-2-[3-(4-fluorophenyl)-1H-pyrazol-1-yl]nicotinamide]
Sel cat. S: Ki(cathepsin S)/Ki(calpain) ratio [1]: ++ (++ means a Ki(cathepsin S)/Ki(calpain) ratio of ≧100)
Sel cat. B: Ki(cathepsin B)/Ki(calpain) ratio [2]: + (+ means 10≦Ki(cathepsin B)/Ki(calpain)<30)
Sel cat. K: Ki(cathepsin K)/Ki(calpain) ratio [3]: + (+ means 10≦Ki(cathepsin K)/Ki(calpain)<30)
Sel cat. L: Ki(cathepsin L)/Ki(calpain) ratio [4]: ++ (++ means a Ki(cathepsin L)/Ki(calpain) ratio of ≧50)

NC(=O)C(=O)C(Cc1ccccc1)NC(=O)c1cccnc1-n1cc2c(n1)-c1cc(Cl)ccc1OC2 (centres unmarked) [Example 140, N-[3-Amino-2,3-dioxo-1-(phenylmethyl)propyl]-2-(8-chlorochromeno[4,3-c]pyrazol-2(4H)-yl)pyridine-3-carboxamide]
Sel cat. S: Ki(cathepsin S)/Ki(calpain) ratio [1]: ++ (++ means a Ki(cathepsin S)/Ki(calpain) ratio of ≧100)
Sel cat. B: Ki(cathepsin B)/Ki(calpain) ratio [2]: + (+ means 10≦Ki(cathepsin B)/Ki(calpain)<30)
Sel cat. K: Ki(cathepsin K)/Ki(calpain) ratio [3]: ++ (++ means a Ki(cathepsin K)/Ki(calpain) ratio of ≧30)
Sel cat. L: Ki(cathepsin L)/Ki(calpain) ratio [4]: ++ (++ means a Ki(cathepsin L)/Ki(calpain) ratio of ≧50)

COc1ccc(CC(NC(=O)c2cccnc2-n2ccc(-c3ccc(F)cc3Cl)n2)C(=O)C(N)=O)cc1 (centres unmarked) [Example 111, N-(3-Amino-1-{[4-(methyloxy)phenyl]methyl}-2,3-dioxopropyl)-2-[3-(2-chloro-4-fluorophenyl)-1H-pyrazol-1-yl]pyridine-3-carboxamide]
Sel cat. S: Ki(cathepsin S)/Ki(calpain) ratio [1]: ++ (++ means a Ki(cathepsin S)/Ki(calpain) ratio of ≧100)
Sel cat. B: Ki(cathepsin B)/Ki(calpain) ratio [2]: ++ (++ means a Ki(cathepsin B)/Ki(calpain) ratio of ≧30)
Sel cat. K: Ki(cathepsin K)/Ki(calpain) ratio [3]: ++ (++ means a Ki(cathepsin K)/Ki(calpain) ratio of ≧30)
Sel cat. L: Ki(cathepsin L)/Ki(calpain) ratio [4]: ++ (++ means a Ki(cathepsin L)/Ki(calpain) ratio of ≧50)

NC(=O)C(=O)C(Cc1ccccc1)NC(=O)c1cccnc1-n1ccc(-c2cccc(OCc3ccccc3)c2)n1 (centres unmarked) [Example 96, N-[3-Amino-2,3-dioxo-1-(phenylmethyl)propyl]-2-(3-{3-[(phenylmethyl)oxy]phenyl}-1H-pyrazol-1-yl)pyridine-3-carboxamide]
Sel cat. S: Ki(cathepsin S)/Ki(calpain) ratio [1]: ++ (++ means a Ki(cathepsin S)/Ki(calpain) ratio of ≧100)
Sel cat. B: Ki(cathepsin B)/Ki(calpain) ratio [2]: ++ (++ means a Ki(cathepsin B)/Ki(calpain) ratio of ≧30)
Sel cat. K: Ki(cathepsin K)/Ki(calpain) ratio [3]: ++ (++ means a Ki(cathepsin K)/Ki(calpain) ratio of ≧30)
Sel cat. L: Ki(cathepsin L)/Ki(calpain) ratio [4]: ++ (++ means a Ki(cathepsin L)/Ki(calpain) ratio of ≧50)

Cc1c(Cl)ccc2c1-c1nn(-c3ncccc3C(=O)NC(Cc3ccccc3)C(=O)C(N)=O)cc1CO2 (centres unmarked) [Example 143, N-[3-Amino-2,3-dioxo-1-(phenylmethyl)propyl]-2-(8-chloro-9-methylchromeno[4,3-c]pyrazol-2(4H)-yl)pyridine-3-carboxamide]
Sel cat. S: Ki(cathepsin S)/Ki(calpain) ratio [1]: ++ (++ means a Ki(cathepsin S)/Ki(calpain) ratio of ≧100)
Sel cat. B: Ki(cathepsin B)/Ki(calpain) ratio [2]: ++ (++ means a Ki(cathepsin B)/Ki(calpain) ratio of ≧30)
Sel cat. K: Ki(cathepsin K)/Ki(calpain) ratio [3]: ++ (++ means a Ki(cathepsin K)/Ki(calpain) ratio of ≧30)
Sel cat. L: Ki(cathepsin L)/Ki(calpain) ratio [4]: ++ (++ means a Ki(cathepsin L)/Ki(calpain) ratio of ≧50)

COc1ccc(CC(NC(=O)c2cccnc2-n2ccc(-c3ccc(F)cc3F)n2)C(=O)C(N)=O)cc1 (centres unmarked) [Example 97, N-(3-Amino-1-{[4-(methyloxy)phenyl]methyl}-2,3-dioxopropyl)-2-[3-(2,4-difluorophenyl)-1H-pyrazol-1-yl]pyridine-3-carboxamide]
Sel cat. S: Ki(cathepsin S)/Ki(calpain) ratio [1]: ++ (++ means a Ki(cathepsin S)/Ki(calpain) ratio of ≧100)
Sel cat. B: Ki(cathepsin B)/Ki(calpain) ratio [2]: ++ (++ means a Ki(cathepsin B)/Ki(calpain) ratio of ≧30)
Sel cat. K: Ki(cathepsin K)/Ki(calpain) ratio [3]: + (+ means 10≦Ki(cathepsin K)/Ki(calpain)<30)
Sel cat. L: Ki(cathepsin L)/Ki(calpain) ratio [4]: ++ (++ means a Ki(cathepsin L)/Ki(calpain) ratio of ≧50)

NC(=O)C(=O)C(Cc1ccc(OC(F)(F)F)cc1)NC(=O)c1cccnc1-n1ccc(-c2ccccc2)n1 (centres unmarked) [Example 133, N-[3-Amino-2,3-dioxo-1-({4-[(trifluoromethyl)oxy]phenyl}methyl)propyl]-2-(3-phenyl-1H-pyrazol-1-yl)pyridine-3-carboxamide]
Sel cat. S: Ki(cathepsin S)/Ki(calpain) ratio [1]: ++ (++ means a Ki(cathepsin S)/Ki(calpain) ratio of ≧100)
Sel cat. B: Ki(cathepsin B)/Ki(calpain) ratio [2]: ++ (++ means a Ki(cathepsin B)/Ki(calpain) ratio of ≧30)
Sel cat. K: Ki(cathepsin K)/Ki(calpain) ratio [3]: ++ (++ means a Ki(cathepsin K)/Ki(calpain) ratio of ≧30)
Sel cat. L: Ki(cathepsin L)/Ki(calpain) ratio [4]: ++ (++ means a Ki(cathepsin L)/Ki(calpain) ratio of ≧50)

NC(=O)C(=O)C(Cc1ccccc1)NC(=O)c1cccnc1-n1cc2c(n1)-c1ccccc1SC2 (centres unmarked) [Example 173, N-[3-Amino-2,3-dioxo-1-(phenylmethyl)propyl]-2-thiochromeno[4,3-c]pyrazol-2(4H)-ylpyridine-3-carboxamide]
Sel cat. S: Ki(cathepsin S)/Ki(calpain) ratio [1]: ++ (++ means a Ki(cathepsin S)/Ki(calpain) ratio of ≧100)
Sel cat. B: Ki(cathepsin B)/Ki(calpain) ratio [2]: + (+ means 10≦Ki(cathepsin B)/Ki(calpain)<30)
Sel cat. K: Ki(cathepsin K)/Ki(calpain) ratio [3]: + (+ means 10≦Ki(cathepsin K)/Ki(calpain)<30)
Sel cat. L: Ki(cathepsin L)/Ki(calpain) ratio [4]: ++ (++ means a Ki(cathepsin L)/Ki(calpain) ratio of ≧50)

COc1ccc(CC(NC(=O)c2cccnc2-n2ccc(-c3ccc(F)cc3OC)n2)C(=O)C(N)=O)cc1 (centres unmarked) [Example 136, N-(3-Amino-1-{[4-(methyloxy)phenyl]methyl}-2,3-dioxopropyl)-2-{3-[4-fluoro-2-(methyloxy)phenyl]-1H-pyrazol-1-yl}pyridine-3-carboxamide]
Sel cat. S: Ki(cathepsin S)/Ki(calpain) ratio [1]: ++ (++ means a Ki(cathepsin S)/Ki(calpain) ratio of ≧100)
Sel cat. B: Ki(cathepsin B)/Ki(calpain) ratio [2]: ++ (++ means a Ki(cathepsin B)/Ki(calpain) ratio of ≧30)
Sel cat. K: Ki(cathepsin K)/Ki(calpain) ratio [3]: ++ (++ means a Ki(cathepsin K)/Ki(calpain) ratio of ≧30)
Sel cat. L: Ki(cathepsin L)/Ki(calpain) ratio [4]: ++ (++ means a Ki(cathepsin L)/Ki(calpain) ratio of ≧50)

NC(=O)C(=O)C(Cc1ccccc1)NC(=O)c1cccnc1-n1ccc(-c2cccc(Cl)c2)n1 (centres unmarked) [Example 70, N-(3-Amino-1-benzyl-2,3-dioxopropyl)-2-[3-(3-chlorophenyl)-1H-pyrazol-1-yl]nicotinamide]
Sel cat. S: Ki(cathepsin S)/Ki(calpain) ratio [1]: ++ (++ means a Ki(cathepsin S)/Ki(calpain) ratio of ≧100)
Sel cat. B: Ki(cathepsin B)/Ki(calpain) ratio [2]: + (+ means 10≦Ki(cathepsin B)/Ki(calpain)<30)
Sel cat. K: Ki(cathepsin K)/Ki(calpain) ratio [3]: + (+ means 10≦Ki(cathepsin K)/Ki(calpain)<30)
Sel cat. L: Ki(cathepsin L)/Ki(calpain) ratio [4]: ++ (++ means a Ki(cathepsin L)/Ki(calpain) ratio of ≧50)

Source: patent US7799809B2, “Carboxamide compounds and their use as calpain inhibitors” (Abbott GmbH & Co. KG, priority 2006, dated 2010)
